Patent publication US8173604B2, “Inhibition of Skp2-cyclin a interaction” (Albert Einstein College of Medicine of Yeshiva University, priority 2006, dated 2012)
Like-named read-outs stand apart in the source and are kept apart here. Ends that are not written are not given here.

Columns and labels:
cyclin A/Cdk2 [1] = target: T1, cyclin A/Cdk2 (Homo sapiens, UniProt P20248+P24941); experiment: In vitro cyclin A/Cdk2 kinase assay with purified proteins (GST-Rb-C substrate); assay type: biochemical
T1 construct: made in house; host or cells: insect cells (baculovirus)
Method: (§1) Cyclin A/Cdk2 kinase assays were performed as described previously (Ji et al., 2004). Both immuno-purified myc-cyclin A/Cdk2 on beads and GST-purified and eluted GST-cyclin A/Cdk2 (baculovirus vectors for GST-cyclin A and Cdk2 were provided by Brian Dynlacht) were used. The amounts of purified proteins were determined by comparing them with known amounts of standard proteins in Coomassie blue stained gels. Phosphorylation of GST-Rb-C was quantified with the ImageQuant software. The Ki of various proteins was determined by non-linear least squares analysis. To determine the amounts of various proteins in synchronized HeLa cells, extracts representing 7.5×10^4 HeLa cells were resolved with known amounts of purified proteins and compared in the same Western blots. Actual amounts of proteins in 7.5×10^4 HeLa cells were then determined (for example, the amounts of p27, Skp2, and cyclin A in 7.5×10^4 HeLa cells were determined to be about 0.1, 0.2, and 0.1 pmoles, respectively, at 14 hours post-replating; and about 0.01, 0.1, and 1.0 pmoles, respectively, at 19 hours post-replating).
For kinase reactions, insect cell-produced and purified GST-cyclin A/Cdk2 was used at a concentration of ˜3 nM, which was the lowest concentration that yielded readily detectible phosphorylation of GST-Rb-C here. Purified p27, GST-Skp2, and Skp2N were titrated into the kinase reaction over a wide range of concentrations (FIGS. 7A, B, and C). Phosphorylation of Rb-C was measured and plotted, and the Ki of these various proteins were determined by non-linear least squares analysis (FIG. 7F).
Since Skp2 competes with p27 for binding to cyclin A and Skp2's Ki is about 100-fold higher than p27's Ki, it can be reasoned that, at concentrations well below its Ki, Skp2 might be able to protect cyclin A/Cdk2 from inhibition by p27. To test this hypothesis, the same cyclin A/Cdk2 kinase assay was carried out to determine the inhibitory activity of p27 in the presence of 80 nM of Skp2N.
It was then determined whether the 4060 peptide could prevent Skp2N from protecting cyclin A/Cdk2 from inhibition by p27. […] When 80 nM of Skp2N was included, 5 nM of p27 lost its ability to inhibit the kinase activity (lane 3). […] These findings indicate that the Skp2-cyclin A interaction is also a potential target to inhibit cyclin A kinase activity in tumor cells, particularly those overexpressing Skp2.
To test this prediction, various peptides were added to an in vitro kinase reaction with purified cyclin A/Cdk2 (˜3 nM concentration). An E2F1-derived RxL peptide, LDL peptide, was used for comparison since it could inhibit cyclin A/Cdk2 kinase activity (Sun et al., 2006, and see next section). Since a TAT sequence was later added to these peptides for trans-membrane delivery (see next section), two versions of each peptide (without TAT and with TAT) was used in these kinase assays. These two versions of peptides yielded identical results and therefore only presented results with one version of the peptides.
The effects of the 4060 peptide on cyclin A/Cdk2 kinase activity in the presence of Skp2 and p27 were then determined.

[2] = target: T2, interaction between cellular Skp2 and cyclin A/Cdk2 (Homo sapiens, UniProt P20248); experiment: Coimmunoprecipitation with cyclin A from peptide-treated U2OS cells; assay type: cell-based; details: 50 μM peptide, twelve hours
T2 construct: endogenous in cells; host or cells: U2OS
Method: (§2) FIG. 12 is photographs of western blots and kinase assays and graphs showing the effects of trans-membrane delivery of the 4060 peptide. In Panel A, U2OS cells were treated with 50 μM of indicated peptide for twelve hours. Cell extracts were prepared for immunoprecipitation and Western blot analysis as indicated. […] In Panel C, the same extracts were used in IP-kinase assays as indicated. The extent of phosphorylation was quantified and plotted.
(§3) The loss of Skp2-cyclin A/Cdk2 interaction was not due to a reduction in levels of these proteins (FIG. 12B). Importantly, cellular p27 protein levels were not affected by the blocking peptide. […] Here, it is important to point out that although we used p27 as an inhibitor of cyclin A-associated kinase activity in purified kinase reactions with the 4060 blocking peptide shown in FIG. 11, the effects of blocking Skp2-cyclin A interaction on cyclin A-associated kinase activity in cells is unlikely to be mediated by p27 alone. There was no significant interaction between p27 and cyclin A in U2OS cells before and after treatment of TAT-4060. p27 family members p21 and p57, and the pocket proteins p107 and p130 (Adams et al., 1996) may bind and inhibit cyclin A-associated kinase activity through the RxL-HP interaction mechanism. […]

p27 = experiment: Western blot of peptide-treated U2OS cell extracts; assay type: cell-based, human; details: U2OS cells, 50 μM peptide, twelve hours
Method: as §2, §3

[3] = tested on: cyclin A-associated kinase activity; experiment: IP-kinase assay of anti-cyclin A and anti-Cdk2 immune complexes from peptide-treated U2OS cells; assay type: cell-based, human; details: 50 μM peptide, twelve hours, compared with TAT-4060AAAA or TAT-Umt
Method: as §2, §3

U2OS cells = tested on: U2OS cells
Method: It is currently unknown how peptide concentrations in the culture media translate into intro-cellular peptide concentrations.
Whether artificial manipulation of Skp2 protein levels in U2OS cells could change the IC50 of various peptides was also investigated.
(§4) Cell proliferation and survival assays. For the cell proliferation assay shown in FIG. 10D, 1×10^4 cells were plated in each well of 24 well plates and allowed to grow for a course of four days in the presence of 10% FBS. Cell numbers were counted every day from triplet wells. For cell survival assays in FIGS. 13, 14 and 15, 1×10^3 cells were plated in each well of 96 well plates and allowed to adhere overnight in the presence of 10% FBS. The cells were washed once with Opti-MEM (GIBCO) followed by incubation with different concentrations of peptides in Opti-MEM for 24 hours in triplicate. MTS assay was then performed following manufacturer's protocol (Promega).

[4] = tested on: human diploid fibroblasts WI-38; experiment: Cell survival MTS assay, WI-38; assay type: cell-based; details: 120 μM, 24 hours
Method: In comparison, both TAT-Umt and TAT-4060 inhibited cyclin A/Cdk2 kinase activity in vitro at peptide concentrations of 100 μM (FIG. 11B). It is currently unknown how peptide concentrations in the culture media translate into intro-cellular peptide concentrations.
as §4

HeLa cells = experiment: Cell survival MTS assay, HeLa; assay type: cell-based, human; details: high levels of Skp2
Source text: IC50 of the 4060 peptide positively correlates with Skp2 protein abundance in cancer cells. Skp2 is frequently overexpressed at various levels in various cancer cells. If TAT-4060 kills cancer cells by disrupting Skp2-cyclin A interaction, higher peptide concentrations should be needed to kill cancer cells with higher levels of Skp2. In comparison, since TAT-LDL is believed to kill cancer cells by blocking access of cyclin A to E2F1, there need not be a direct correlation between effective TAT-LDL concentrations and cellular Skp2 protein levels. To test this prediction, Skp2 protein levels and IC50 of both TAT-4060 and TAT-LDL was determined for the panel of four cancer cell lines.
as §4

[5] = target: T3, Skp2-cyclin A interaction (Homo sapiens, UniProt P20248); experiment: GST pull-down, blocking of Skp2-cyclin A interaction by peptides; assay type: binding; details: GST-Skp2N, myc-cyclin A/Cdk2 transfected 293T cell extracts
T3 construct: expressed in transfected cells; host or cells: 293T (cyclin A/Cdk2)
Method: (§5) GST pull down, p27 ubiquitylation assay, and cyclin A kinase assay. GST fusion proteins were purified on GSH-beads (Amersham), which were then incubated with transfected cell extracts for 1 hour in 4° C. with rocking. The beads were washed three times with lysis buffer (25 mM Hepes pH 7.6, 100 mM KCl, 0.1 mM EDTA, 10 mM MgCl2, 0.1% NP-40, 10% glycerol, 1 mM DTT) before analysis by SDS-PAGE and Western blotting.
(§6) Skp2-cyclin A interaction and p27-cyclin A interaction can be blocked by distinct peptides. An important aspect of the RxL-1-IP interaction is that it can be blocked by a short RxL peptide (Adams et al., 1996). If the Skp2-cyclin A/Cdk2 interaction and the p27-cyclin A/Cdk2 interaction are mediated by different sequences on both sides of the interaction, as shown above, it can be predicted that the RxL peptide should not block Skp2-cyclin A interaction. […] Peptide concentrations required for their respective blocking activities were similar for RxL and 4060 peptides.

p27-cyclin A interaction = target: T4, p27-cyclin A interaction (Homo sapiens, UniProt P20248); experiment: GST pull-down, blocking of p27-cyclin A interaction; assay type: binding; details: GST-p27, myc-cyclin A/Cdk2 transfected 293T cell extracts
T4 construct: expressed in transfected cells; host or cells: 293T (cyclin A/Cdk2)
Method: as §5, §6
Skp2 competes with p27/p21, but not E2F1, for binding to cyclin A. Whether the apparently distinct Skp2-cyclin A interaction and p27-cyclin A interaction are competitive against each other was next evaluated. […] Whether the competition between Skp2 and p27/p21 for cyclin A binding could be observed in vivo with endogenous proteins under physiological conditions was next determined. […]

cyclin A/Cdk2 [6] = target: T1, cyclin A/Cdk2; experiment: IP-kinase assay with myc-cyclin A/Cdk2 transfected 293T cell extract; assay type: biochemical; details: increasing amounts of peptide
Method: In panel A, an IP-kinase assay was performed with myc-cyclin A/Cdk2 transfected 293T cell extract in the presence of increasing amounts of RxL or 4060 peptides. Phosphorylation of GST-Skp2N is visible in this gel. […] As indicated, increasing amounts of the 4060 or 4060AAAA peptides were included in the reactions. Phosphorylation of Rb-C was quantified and plotted as shown.
as §1, with “To determine the amounts of various proteins in synchronized HeLa cells, extracts representing 7.5×10^4 HeLa cells were resolved with known amounts of purified proteins and compared in the same Western blots.” left out, “post-replating). […]” for “post-replating).”

Sequence | Inhibitory effect on cyclin A/Cdk2 kinase activity (cyclin A/Cdk2 [1]; 1 μM and 10 μM peptide) | Inhibition of cyclin A/Cdk2 kinase activity (cyclin A/Cdk2 [1]; 100 μM peptide) | Dissociation of interaction between cellular Skp2 and cyclin A/Cdk2 [2] | Cellular p27 protein levels (p27) | Kinase activity in anti-cyclin A and anti-Cdk2 immune complexes [3] | Concentration of peptide to achieve 40% killing (U2OS cells; U2OS with artificial decrease in Skp2 protein levels (knockdown)) [µM] | Cell killing effectiveness (U2OS cells; U2OS with artificial increase of Skp2 protein levels (overexpression)) | Cell killing effect of single peptide (U2OS cells; U2OS, 1 or 2 μM, 24 hours) | Concentration of peptide to achieve 40% killing (U2OS cells; U2OS, Skp2 levels not manipulated) [µM] | Cell killing effect (U2OS cells; U2OS, twenty four hours after addition of peptides) | IC50 (U2OS cells; read-out: IC50 of cell killing, U2OS, 24 hours, MTS) [µM] | WI-38 cells killed [4] | Peptide concentration required for cell killing (HeLa cells) | Blocking of Skp2N-cyclin A interaction [5] | Blocking of p27-cyclin A interaction (p27-cyclin A interaction) | Effect of peptide itself on cyclin A/Cdk2 kinase activity towards Rb-C (cyclin A/Cdk2 [6])
YGRKKRRQRRRGKTSELLSGMGVSALEKEE [TAT-4060] | did not show inhibitory effect | significant inhibition | resulted in dissociation | not affected | clear reduction | 20 | nearly as ineffective as TAT-Umt | neither TAT-LDL nor TAT-4060 exhibited any cell killing effects | 40 | induced significant cell death | 35 | no effect | very high concentrations |  |  | 
SACRNLFG (peptide RxL) [reference compound] |  |  |  |  |  |  |  |  |  |  |  |  |  | but not the Skp2N-cyclin A interaction | blocking the p27-cyclin A interaction | inhibited the kinase activity
